Data taken from the supplement of paper PMC10307832.

compound: C(C(=O)C(=O)O)Br [Bromopyruvate] + O=C(c1cc(Cc2n[nH]c(=O)c3ccccc23)ccc1F)N1CCN(C(=O)C2CC2)CC1 [Olaparib] (partner 8 µM); experiment: relative viability (nuclei count vs DMSO), 5 days (fraction); higher = more cells survive; settings: first compound 1 µM
Method in brief: (§1)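 For relative viability, nuclei counts in treated wells were divided by those in vehicle wells. Lung cancer cell lines had been pin-tool dosed in 1536-well plates the day after seeding and cultured for 5 days, then fixed and stained in one step (final 0.05% Triton X-100, 1% formaldehyde, 1 ug/ml Hoechst) and imaged at 4×. Doses were one drug alone or a fixed anchor-drug dose plus five library-drug doses (not always all listed) in √10 steps, and values are duplicate-plate medians.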

In order of rising relative viability:
1. NCI-H1792  0.0016
2. NCI-H1651  0.188
3. NCI-H23  0.318
4. NCI-H650  0.324
5. NCI-H1944  0.395
6. NCI-H358  0.591
7. NCI-H1437  0.647
8. NCI-H322M  0.715
9. EKVX  0.73
10. NCI-H1355  0.738
11. HCC-15  0.745
12. ABC-1  0.775
13. EPLC-272H  0.783
14. NCI-H2085  0.794
15. LC-2-ad  0.816
16. NCI-H1793  0.841
17. NCI-H1975  0.858
18. NCI-H1755  0.935
19. RERF-LC-KJ  0.981
20. PC-3 [JPC-3]  1.22

same assay, conditions: first compound 3.162 µM

In order of falling relative viability:
1. LXF-289  1.03
2. NCI-H1793  0.95
3. EPLC-272H  0.885
4. EKVX  0.87
5. NCI-H1755  0.865
6. NCI-H2405  0.859
7. RERF-LC-KJ  0.857
8. 201T  0.824
9. NCI-H322M  0.82
10. HCC-78  0.811
11. NCI-H2085  0.81
12. NCI-H1975  0.79
13. NCI-H1355  0.762
14. A-427  0.758
15. HCC-15  0.735
16. NCI-H727  0.707
17. HCC-827  0.706
18. NCI-H358  0.687
19. LC-2-ad  0.665
20. NCI-H1437  0.664
21. NCI-H1734  0.585
22. NCI-H441  0.538
23. NCI-H2347  0.536
24. NCI-H1792  0.469
25. LCLC-97TM1  0.458
26. NCI-H1395  0.452
27. NCI-H1944  0.432
28. NCI-H460  0.404
29. NCI-H650  0.378
30. NCI-H23  0.316
31. NCI-H1915  0.267
32. NCI-H1651  0.182

same assay, conditions: first compound 10 µM

In order of rising relative viability:
1. NCI-H1651  0.187
2. NCI-H1915  0.242
3. NCI-H23  0.321
4. LC-2-ad  0.352
5. NCI-H650  0.379
6. NCI-H1944  0.429
7. NCI-H460  0.469
8. NCI-H1395  0.476
9. LCLC-97TM1  0.481
10. NCI-H2347  0.511
11. NCI-H1792  0.532
12. NCI-H358  0.628
13. NCI-H441  0.643
14. NCI-H1437  0.656
15. NCI-H1355  0.681
16. HCC-15  0.697
17. NCI-H1734  0.729
18. HCC-827  0.732
19. NCI-H322M  0.743
20. NCI-H727  0.764
21. NCI-H2085  0.772
22. A-427  0.782
23. EKVX  0.843
24. NCI-H1755  0.854
25. 201T  0.86
26. NCI-H2405  0.916
27. NCI-H1793  0.925
28. HCC-78  0.944
29. RERF-LC-KJ  0.954
30. EPLC-272H  0.971
31. LXF-289  1.1
32. PC-3 [JPC-3]  1.11
33. NCI-H1975  1.11

same assay, conditions: first compound 31.62 µM

In order of rising relative viability:
1. NCI-H1651  0.207
2. NCI-H1915  0.254
3. NCI-H650  0.278
4. LCLC-97TM1  0.352
5. NCI-H460  0.397
6. NCI-H23  0.399
7. NCI-H1944  0.419
8. NCI-H1395  0.52
9. NCI-H2347  0.559
10. NCI-H441  0.564
11. NCI-H358  0.565
12. NCI-H1792  0.582
13. NCI-H1734  0.616
14. HCC-827  0.616
15. NCI-H1437  0.62
16. LC-2-ad  0.666
17. A-427  0.693
18. HCC-15  0.734
19. NCI-H322M  0.737
20. NCI-H1975  0.755
21. NCI-H1355  0.764
22. HCC-78  0.776
23. NCI-H727  0.79
24. NCI-H2085  0.818
25. 201T  0.84
26. EKVX  0.861
27. NCI-H1793  0.921
28. NCI-H1755  0.924
29. EPLC-272H  0.932
30. RERF-LC-KJ  0.942
31. LXF-289  1.15

same assay, conditions: first compound 100 µM

In order of falling relative viability:
1. PC-3 [JPC-3]  1.11
2. LXF-289  1.04
3. NCI-H1755  0.936
4. NCI-H1793  0.89
5. 201T  0.88
6. EKVX  0.874
7. RERF-LC-KJ  0.852
8. HCC-78  0.848
9. NCI-H1355  0.776
10. A-427  0.774
11. EPLC-272H  0.699
12. HCC-15  0.699
13. NCI-H322M  0.687
14. NCI-H1792  0.68
15. LC-2-ad  0.664
16. NCI-H727  0.634
17. NCI-H1437  0.627
18. NCI-H1975  0.605
19. NCI-H441  0.602
20. HCC-827  0.588
21. NCI-H2347  0.57
22. ABC-1  0.566
23. NCI-H2085  0.551
24. NCI-H358  0.535
25. NCI-H460  0.462
26. NCI-H1395  0.443
27. NCI-H1734  0.429
28. NCI-H2405  0.402
29. NCI-H1944  0.402
30. NCI-H1915  0.22
31. LCLC-97TM1  0.212
32. NCI-H650  0.206
33. NCI-H23  0.196
34. NCI-H1651  0.167

compound: CC(O)(CS(=O)(=O)c1ccc(F)cc1)C(=O)Nc1ccc(C#N)c(C(F)(F)F)c1 [Bicalutamide] + NC(=O)Nc1cc(-c2cccc(F)c2)sc1C(=O)N[C@H]1CCCNC1 [AZD7762] (partner 0.2 µM); experiment: as above; settings: first compound 0.08 µM
Method in brief: as §1

In order of rising relative viability:
1. EPLC-272H  0.155
2. HCC-827  0.234
3. NCI-H23  0.315
4. NCI-H1755  0.382
5. LCLC-97TM1  0.388
6. NCI-H1395  0.402
7. NCI-H1944  0.496
8. NCI-H1651  0.513
9. NCI-H358  0.562
10. NCI-H1734  0.568
11. NCI-H322M  0.581
12. 201T  0.637
13. EKVX  0.693
14. NCI-H1793  0.705
15. NCI-H1915  0.721
16. NCI-H2405  0.739
17. NCI-H1792  0.756
18. HCC-78  0.758
19. NCI-H1975  0.769
20. NCI-H727  0.794
21. NCI-H2347  0.797
22. A-427  0.807
23. NCI-H460  0.816
24. NCI-H1355  0.828
25. ABC-1  0.828
26. NCI-H650  0.847
27. LC-2-ad  0.852
28. PC-3 [JPC-3]  0.86
29. RERF-LC-KJ  0.982
30. NCI-H2085  0.983
31. NCI-H441  1.06
32. HCC-15  1.07
33. LXF-289  1.17
34. NCI-H1437  1.17

same assay, conditions: first compound 0.253 µM

In order of falling relative viability:
1. NCI-H1437  1.13
2. NCI-H650  1.09
3. NCI-H441  1.08
4. LXF-289  1.05
5. HCC-15  1.05
6. NCI-H2085  0.99
7. RERF-LC-KJ  0.847
8. LC-2-ad  0.838
9. PC-3 [JPC-3]  0.815
10. NCI-H1975  0.783
11. NCI-H2347  0.753
12. NCI-H2405  0.713
13. NCI-H1355  0.701
14. A-427  0.677
15. NCI-H460  0.659
16. NCI-H1915  0.616
17. EKVX  0.613
18. HCC-78  0.598
19. ABC-1  0.572
20. NCI-H727  0.563
21. NCI-H1792  0.522
22. NCI-H322M  0.521
23. NCI-H358  0.489
24. NCI-H1734  0.439
25. NCI-H1944  0.438
26. 201T  0.408
27. NCI-H1395  0.399
28. NCI-H1651  0.396
29. NCI-H1755  0.388
30. EPLC-272H  0.297
31. NCI-H23  0.236
32. LCLC-97TM1  0.186
33. HCC-827  0.124

same assay, conditions: first compound 0.8 µM

In order of rising relative viability:
1. EPLC-272H  0.215
2. HCC-827  0.217
3. LCLC-97TM1  0.225
4. NCI-H23  0.27
5. NCI-H1395  0.394
6. NCI-H1793  0.432
7. NCI-H1755  0.475
8. NCI-H1944  0.519
9. NCI-H727  0.54
10. NCI-H1651  0.549
11. NCI-H322M  0.579
12. 201T  0.586
13. NCI-H358  0.64
14. NCI-H1734  0.645
15. HCC-78  0.696
16. NCI-H1915  0.712
17. NCI-H1975  0.722
18. NCI-H1792  0.741
19. NCI-H2347  0.753
20. NCI-H460  0.76
21. EKVX  0.797
22. A-427  0.855
23. NCI-H2405  0.88
24. PC-3 [JPC-3]  0.912
25. LC-2-ad  0.915
26. NCI-H1355  0.923
27. NCI-H2085  1.02
28. ABC-1  1.02
29. LXF-289  1.11
30. NCI-H441  1.13
31. NCI-H1437  1.15
32. HCC-15  1.2
33. NCI-H650  1.21
34. RERF-LC-KJ  1.47

same assay, conditions: first compound 2.53 µM

In order of falling relative viability:
1. NCI-H1437  1.19
2. NCI-H441  1.16
3. LXF-289  1.1
4. HCC-15  1.09
5. NCI-H2085  0.901
6. NCI-H650  0.886
7. LC-2-ad  0.883
8. PC-3 [JPC-3]  0.874
9. RERF-LC-KJ  0.867
10. ABC-1  0.772
11. NCI-H460  0.735
12. NCI-H2347  0.73
13. NCI-H1355  0.72
14. NCI-H2405  0.694
15. NCI-H1915  0.682
16. NCI-H1975  0.667
17. EKVX  0.664
18. NCI-H1792  0.644
19. HCC-78  0.611
20. 201T  0.599
21. A-427  0.583
22. NCI-H727  0.576
23. NCI-H322M  0.572
24. NCI-H1734  0.571
25. NCI-H358  0.547
26. NCI-H1651  0.436
27. NCI-H1395  0.377
28. NCI-H1944  0.366
29. NCI-H1755  0.365
30. NCI-H1793  0.282
31. EPLC-272H  0.239
32. LCLC-97TM1  0.232
33. HCC-827  0.227
34. NCI-H23  0.2
